Reference: US5693628A, “11-benzaldoxime-estra-diene derivatives, methods for their production and pharmaceuticals containing these compounds” (priority 1994, dated 1997)

Target: T1, progesterone receptor (Oryctolagus cuniculus, UniProt P06186)
T1 construct: uterine cytosol of the estradiol-primed rabbit; from tissue; host or cells: uterus (cytosol) of estradiol-primed rabbit
T1 sequence (P06186 1-930): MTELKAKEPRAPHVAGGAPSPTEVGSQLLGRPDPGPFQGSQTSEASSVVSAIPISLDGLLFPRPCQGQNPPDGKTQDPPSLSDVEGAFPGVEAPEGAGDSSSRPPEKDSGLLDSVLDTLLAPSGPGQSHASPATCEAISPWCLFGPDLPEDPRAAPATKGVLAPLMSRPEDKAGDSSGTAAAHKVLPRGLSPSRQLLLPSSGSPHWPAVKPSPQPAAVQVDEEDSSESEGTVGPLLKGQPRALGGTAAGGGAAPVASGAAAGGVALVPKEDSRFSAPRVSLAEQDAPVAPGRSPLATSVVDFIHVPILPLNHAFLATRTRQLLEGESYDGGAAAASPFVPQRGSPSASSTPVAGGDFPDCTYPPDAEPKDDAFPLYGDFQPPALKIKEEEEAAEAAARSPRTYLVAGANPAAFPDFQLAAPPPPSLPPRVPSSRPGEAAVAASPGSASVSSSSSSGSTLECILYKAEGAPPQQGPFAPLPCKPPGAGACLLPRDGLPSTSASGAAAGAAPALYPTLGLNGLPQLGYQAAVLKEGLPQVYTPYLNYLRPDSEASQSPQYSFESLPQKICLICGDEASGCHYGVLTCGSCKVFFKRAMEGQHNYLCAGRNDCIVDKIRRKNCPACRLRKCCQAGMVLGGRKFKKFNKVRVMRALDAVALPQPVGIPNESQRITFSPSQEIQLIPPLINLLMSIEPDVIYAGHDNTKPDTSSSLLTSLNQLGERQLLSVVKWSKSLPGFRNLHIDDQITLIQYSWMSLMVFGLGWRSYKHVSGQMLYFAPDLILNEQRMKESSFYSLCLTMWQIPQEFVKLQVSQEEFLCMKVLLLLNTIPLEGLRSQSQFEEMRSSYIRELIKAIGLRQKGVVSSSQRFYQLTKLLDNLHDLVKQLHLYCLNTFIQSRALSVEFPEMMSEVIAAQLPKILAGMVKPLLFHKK
Test: relative molar bonding affinity to progesterone receptor (competitive bonding)
Type: binding
Conditions: progesterone = 100%; uterine cytosol of estradiol-primed rabbit; 3H-ORG 2058, 5 nM; 18 h, 0-4° C.
Procedure: Measurement of bonding affinity for receptors
Receptor bonding affinity was determined by competitive bonding of a specifically binding ^3 H labelled hormone (tracer) and the compound to be tested to receptors in the cytosol from animal target organs. It was tried to obtain receptor saturation and a balanced reaction. The following incubation conditions were selected:
Progesterone receptor: uterine cytosol of the estradiol-primed rabbit, kept at -30° C. in TED buffer (20 mM Tris/HCl, pH 7.4; 1 mM ethylene diamine tetraacetate, 2 mM dithio threitol) with 250 mM of saccharose.
After an incubation period of 18 hours at 0°-4° C., bonded and free steroid was separated by mixing in active carbon/dextrane (1%/0.1%), centrifuging off and measuring the bonded ^3 H activity in the supernatant.
The IC50 for the compound to be tested and for the reference substance were determined from measurements in series of concentrations.

COC[C@]1(OC)CC[C@H]2[C@@H]3CCC4=CC(=O)CCC4=C3[C@@H](c3ccc(C=NO)cc3)C[C@@]21C [Example 1, 11β-[4-(hydroximinomethyl)phenyl]-17β-methoxy-17α-methoxymethyl-estra-4,9-diene-3-on]
relative molar bonding affinity (RBA) to progesterone receptor: 302%
